One assay addresses human Factor XIa (Homo sapiens (Human), UniProt P03951). Nature of the assay: Factor XIa Assay (fluorogenic substrate GPR-AFC). In kind it is biochemical. The following applies: Factor XIa (FXIa).
The target of the next assay is Human plasma kallikrein (Homo sapiens (Human), UniProt P03952). Nature of the assay: Kallikrein Assay (fluorogenic substrate Acetyl-K-P-R-AFC). In kind it is biochemical. The conditions noted are these: Plasma Kallikrein (PKal). An outline of the steps:
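Ki is derived from IC50 with the Cheng-Prusoff equation, and IC50 from the inflection point of a four-parameter logistic curve. The rate of AFC release is read with 0.5 nM purified enzyme and […] substrate at room temperature or 37 °C.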

Chain of human Factor XIa (P03951 388-625 limits assumed): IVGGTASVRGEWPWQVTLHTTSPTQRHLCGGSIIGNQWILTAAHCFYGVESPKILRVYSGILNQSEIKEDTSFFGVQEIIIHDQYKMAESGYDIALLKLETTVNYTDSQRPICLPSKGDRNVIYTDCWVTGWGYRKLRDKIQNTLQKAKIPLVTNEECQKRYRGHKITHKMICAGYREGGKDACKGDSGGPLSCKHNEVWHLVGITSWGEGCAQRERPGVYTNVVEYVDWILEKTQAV
Chain of human Factor XIa (P03951 19-387 partner limits assumed): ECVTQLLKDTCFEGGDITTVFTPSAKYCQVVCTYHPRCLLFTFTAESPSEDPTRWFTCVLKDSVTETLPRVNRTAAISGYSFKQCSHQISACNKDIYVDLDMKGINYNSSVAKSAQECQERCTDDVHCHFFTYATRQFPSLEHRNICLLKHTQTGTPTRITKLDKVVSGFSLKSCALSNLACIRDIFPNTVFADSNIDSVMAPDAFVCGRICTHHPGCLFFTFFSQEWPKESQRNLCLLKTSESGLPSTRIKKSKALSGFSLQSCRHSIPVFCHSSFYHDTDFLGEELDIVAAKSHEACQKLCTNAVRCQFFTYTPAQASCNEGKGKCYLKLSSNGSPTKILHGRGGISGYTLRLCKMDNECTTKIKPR
Chain of Human plasma kallikrein (P03952 391-638): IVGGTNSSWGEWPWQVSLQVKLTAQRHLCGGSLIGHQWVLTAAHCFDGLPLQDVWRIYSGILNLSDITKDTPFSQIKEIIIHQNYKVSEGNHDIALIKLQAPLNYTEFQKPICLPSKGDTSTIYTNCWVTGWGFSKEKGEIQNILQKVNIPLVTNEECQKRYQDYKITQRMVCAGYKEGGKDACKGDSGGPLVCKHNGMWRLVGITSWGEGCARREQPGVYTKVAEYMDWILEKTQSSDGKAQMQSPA
Chain of Human plasma kallikrein (P03952 20-390 partner): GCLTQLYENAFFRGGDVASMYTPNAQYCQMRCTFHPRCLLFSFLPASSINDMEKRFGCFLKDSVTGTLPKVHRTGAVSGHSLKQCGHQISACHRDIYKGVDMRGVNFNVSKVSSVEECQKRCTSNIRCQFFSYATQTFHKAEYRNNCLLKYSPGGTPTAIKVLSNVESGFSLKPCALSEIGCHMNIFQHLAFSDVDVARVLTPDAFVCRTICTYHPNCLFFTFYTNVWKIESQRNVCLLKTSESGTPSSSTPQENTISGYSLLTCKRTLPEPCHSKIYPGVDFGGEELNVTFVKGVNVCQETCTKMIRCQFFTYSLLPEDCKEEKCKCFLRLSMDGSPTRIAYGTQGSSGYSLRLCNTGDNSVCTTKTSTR

Turning to `Cc1ncc(-c2c(C(F)F)ccc(Cl)c2F)nc1C(=O)Nc1cnn(Cc2ccc(N3C[C@H]4C[C@H]4C3=O)nn2)c1` [Example 21, 6-(3-Chloro-6-(difluoromethyl)-2-fluorophenyl)-3-methyl-N-(1-((6-((1R,5S)-2-oxo-3-azabicyclo[3.1.0]hexan-3-yl)pyridazin-3-yl)methyl)-1H-pyrazol-4-yl)pyrazine-2-carboxamide], the results for the IC50 against human Factor XIa and at Human plasma kallikrein were 7010 nM and 38 nM, respectively.
For “6-(3-Chloro-2-fluoro-6-(methylsulfonyl)phenyl)-N-(1-((S or R)-1-(4-methyl-2-((1R,SS)-2-oxo-3-azabicyclo[3.1.0]hexan-3-yl)pyrimidin-5-yl)ethyl)- 1H-pyrazol-4-yl)pyrazine-2-carboxamide [Example 86]” the same measures were above 10000 nM and 36 nM.
For the compound `Cc1ccc(Cl)c(F)c1-c1cncc(C(=O)Nc2cnn(C(C)c3cnc(N4C[C@H]5C[C@H]5C4=O)nc3C)c2)n1` (single isomer, unassigned) [Example 108, 6-(3 -Chloro-2-fluoro-6-methylphenyl)-N-(1-((S or R)-1-(4-methyl-2-((1R,5S)-2-oxo-3-azabicyclo[3.1.0]hexan-3-yl)pyrimidin-5-yl)ethyl)-1H-pyrazol-4-yl)pyrazine-2-carboxamide], the IC50 at human Factor XIa was above 10000 nM; against Human plasma kallikrein, 16.6 nM.
For `Cc1nc(N2C[C@H]3C[C@H]3C2=O)ncc1Cn1cc(NC(=O)c2cncc(-c3c(C(F)F)ccc(Cl)c3F)n2)cn1` [Example 24, 6-(3-Chloro-6-(difluoromethyl)-2-fluorophenyl)-N-(1-((4-methyl-2-((1R,5S)-2-oxo-3-azabicyclo[3.1.0]hexan-3-yl)pyrimidin-5-yl)methyl)-1H-pyrazol-4-yl)pyrazine-2-carboxamide] the same measures were 3110 nM and 10.5 nM.
For `CC(c1cnc(N2C[C@H]3C[C@H]3C2=S)nc1)n1cc(NC(=O)c2cncc(-c3c(C(F)F)ccc(Cl)c3F)n2)cn1` (single isomer, unassigned) [Example 31, 6-(3-Chloro-6-(difluoromethyl)-2-fluorophenyl)-N-(1-((S or R)-1-(2-((1R,5S)-2-thioxo-3-azabicyclo[3.1.0]hexan-3-yl)pyrimidin-5-yl)ethyl)-1H-pyrazol-4-yl)pyrazine-2-carboxamide], the IC50 against human Factor XIa was above 10000 nM; at Human plasma kallikrein it was 6.3 nM.
In the case of `Cc1ncc(-c2c(C(F)F)ccc(Cl)c2F)nc1C(=O)Nc1cnn(C(C)c2ncc(N3C[C@H]4C[C@H]4C3=O)cn2)c1` (single isomer, unassigned) [Example 6, 6-(3-Chloro-6-(difluoromethyl)-2-fluorophenyl)-3-methyl-N-(1-((R or S)-1-(5-((1R,5S)-2-oxo-3-azabicyclo[3.1.0]hexan-3-yl)pyrimidin-2-yl)ethyl)-1H-pyrazol-4-yl)pyrazine-2-carboxamide], the IC50 on human Factor XIa is above 10000 nM; against Human plasma kallikrein, 0.9 nM.
With `Cc1ncc(-c2c(C(F)F)ccc(Cl)c2F)nc1C(=O)Nc1cnn(C(C)c2cnc(N3CCC(O)C3=O)nc2)c1` (single isomer, unassigned) [Example 87, 6-(3-Chloro-6-(difluoromethyl)-2-fluorophenyl)-N-(1-((S or R)-1-(2-((R or S)-3-hydroxy-2-oxopyrrolidin-1-yl)pyrimidin-5-yl)ethyl)-1H-pyrazol-4-yl)-3-methylpyrazine-2-carboxamide], the IC50 is above 10000 nM on human Factor XIa and 26.2 nM at Human plasma kallikrein.
In the case of `Cc1nc(C(C)n2cc(NC(=O)c3cncc(-c4c(C(F)(F)F)ccc(Cl)c4F)n3)cn2)cnc1N1C[C@H]2C[C@H]2C1=O` (single isomer, unassigned) [Example 19, 6-(3-Chloro-2-fluoro-6-(trifluoromethyl)phenyl)-N-(1-((R or S)-1-(6-methyl-5-((1R,5S)-2-oxo-3-azabicyclo[3.1.0]hexan-3-yl)pyrazin-2-yl)ethyl)-1H-pyrazol-4-yl)pyrazine-2-carboxamide], the figures for the IC50 at human Factor XIa and against Human plasma kallikrein were above 10000 nM and 3.7 nM, respectively.
As to `CCc1nc(C(C)n2cc(NC(=O)c3cncc(-c4c(C(F)F)ccc(Cl)c4F)n3)cn2)cnc1N1C[C@H]2C[C@H]2C1=O` (single isomer, unassigned) [Example 55, 6-(3-Chloro-6-(difluoromethyl)-2-fluorophenyl)-N-(1-((S or R)-1-(6-ethyl-5-((1R,5S)-2-oxo-3-azabicyclo[3.1.0]hexan-3-yl)pyrazin-2-yl)ethyl)-1H-pyrazol-4-yl)pyrazine-2-carboxamide], the IC50 against human Factor XIa stood at 5360 nM; against Human plasma kallikrein, 5.8 nM.
For `Cc1ncc(-c2c(C(F)F)ccc(Cl)c2F)nc1C(=O)Nc1cnn(C(C)c2ncc(N3C[C@H]4C[C@H]4C3=O)c(C)c2F)c1` (single isomer, unassigned) [Example 244, 6-(3-Chloro-6-(difluoromethyl)-2-fluorophenyl)-N-(1-((R or S)-1-(3-fluoro-4-methyl-5-((1R,5S)-2-oxo-3-azabicyclo[3.1.0]hexan-3-yl)pyridin-2-yl)ethyl)-1H-pyrazol-4-yl)-3-methylpyrazine-2-carboxamide] the same measures were above 10000 nM and 46.8 nM.
For `Cc1cc(C(C)n2cc(NC(=O)c3nc(-c4c(C(F)F)ccc(Cl)c4F)cnc3C)cn2)cnc1N1C[C@H]2C[C@H]2C1=O` (single isomer, unassigned) [Example 120, 6-(3-Chloro-6-(difluoromethyl)-2-fluorophenyl)-3-methyl-N-(1-((R or S)-1-(5-methyl-6-((1R,5S)-2-oxo-3-azabicyclo[3.1.0]hexan-3-yl)pyridin-3-yl)ethyl)-1H-pyrazol-4-yl)pyrazine-2-carboxamide], in that order: 149 nM and 0.5 nM.
Turning to `C[C@@H](c1cnc(N2C[C@H]3C[C@H]3C2=O)nc1)n1cc(NC(=O)c2nc(-c3c(C(F)F)ccc(Cl)c3F)cnc2COC(C)(C)C)cn1` [Example 192, 3-(tert-Butoxymethyl)-6-(3-chloro-6-(difluoromethyl)-2-fluorophenyl)-N-(1-((S)-1-(2-((1R,5S)-2-oxo-3-azabicyclo[3.1.0]hexan-3-yl)pyrimidin-5-yl)ethyl)-1H-pyrazol-4-yl)pyrazine-2-carboxamide], the IC50 was found to be 6830 nM against human Factor XIa and 4.4 nM at Human plasma kallikrein.
For the compound `Cc1cc([C@H](C)n2cc(NC(=O)c3nc(-c4c(OC(F)F)ccc(Cl)c4F)cnc3CO)cn2)cnc1N1C[C@H]2C[C@H]2C1=O` [Example 226], the IC50 on human Factor XIa was determined as 41 nM; on Human plasma kallikrein, 0.4 nM.
As for `Cc1ncc(-c2c(C(F)F)ccc(Cl)c2F)nc1C(=O)Nc1cnn(Cc2ncc(N3C[C@H]4C[C@H]4C3=O)c(C)c2F)c1` [Example 215, 6-(3-Chloro-6-(difluoromethyl)-2-fluorophenyl)-N-(1-((3-fluoro-4-methyl-5-((1R,5S)-2-oxo-3-azabicyclo[3.1.0]hexan-3-yl)pyridin-2-yl)methyl)-1H-pyrazol-4-yl)-3-methylpyrazine-2-carboxamide], the half-maximal inhibitory concentration (IC50) at human Factor XIa was above 10000 nM; at Human plasma kallikrein it was 7.8 nM.
For `CC(c1cnc(N2Cc3ncccc3C2=O)nc1)n1cc(NC(=O)c2cncc(-c3c(C(F)F)ccc(Cl)c3F)n2)cn1` (racemic) [Example 27, (S and R)-6-(3-Chloro-6-(difluoromethyl)-2-fluorophenyl)-N(1-(1-(2-(5-oxo-5,7-dihydro-6H-pyrrolo[3,4-b]pyridin-6-yl)pyrimidin-5-yl)ethyl)-1H-pyrazol-4-yl)pyrazine-2-carboxamide], the results for the IC50 at human Factor XIa and against Human plasma kallikrein were 5650 nM and 14.8 nM, respectively.
`Cc1nc(N2C[C@H]3C[C@H]3C2=O)ncc1C(C)n1cc(NC(=O)c2nc(-c3c(C(F)F)ccc(Cl)c3F)cnc2CO)cn1` (single isomer, unassigned) [Example 194, 6-(3-Chloro-6-(difluoromethyl)-2-fluorophenyl)-3-(hydroxymethyl)-N-(1-((S or R)-1-(4-methyl-2-((1R,5S)-2-oxo-3-azabicyclo[3.1.0]hexan-3-yl)pyrimidin-5-yl)ethyl)-1H-pyrazol-4-yl)pyrazine-2-carboxamide]: the results for the IC50 on human Factor XIa and against Human plasma kallikrein were 262 nM and 0.5 nM, respectively.
For `Cc1cc([C@@H](C)n2cc(NC(=O)c3nc(-c4c(OC(F)F)ccc(Cl)c4F)cnc3C)cn2)nnc1N1C[C@H]2C[C@H]2C1=O` [Example 40, 6-(3-Chloro-6-(difluoromethoxy)-2-fluorophenyl)-3-methyl-N-(1-((R)-1-(5-methyl-6-((1R,5S)-2-oxo-3-azabicyclo[3.1.0]hexan-3-yl)pyridazin-3-yl)ethyl)-1H-pyrazol-4-yl)pyrazine-2-carboxamide] the same measures were 255 nM and 1.8 nM.
For `Cc1ncc(-c2c(C(F)F)ccc(Cl)c2F)nc1C(=O)Nc1cnn([C@H](C)c2cnc(N3C[C@H]4C[C@H]4C3=O)c(N)c2)c1` [Example 190], in that order: 1040 nM and 0.7 nM.
For `Cc1nc(N2C[C@H]3C[C@H]3C2=O)ncc1Cn1cc(NC(=O)c2nc(-c3c(C(F)F)ccc(Cl)c3F)cc(=O)n2C)cn1` [Example 81, 4-(3-Chloro-6-(difluoromethyl)-2-fluorophenyl)-1-methyl-N-(1-((4-methyl-2-((1R,5S)-2-oxo-3-azabicyclo[3.1.0]hexan-3-yl)pyrimidin-5-yl)methyl)-1H-pyrazol-4-yl)-6-oxo-1,6-dihydropyrimidine-2-carboxamide] the same measures were 94 nM and 1.8 nM.
Take `Cc1cc(C(C)n2cc(NC(=O)c3nc(-c4c(C(F)F)ccc(Cl)c4F)cnc3C)cn2)nnc1N1C[C@H]2C[C@H]2C1=O` (single isomer, unassigned) [Example 102, 6-(3-Chloro-6-(difluoromethyl)-2-fluorophenyl)-3-methyl-N-(1-((S or R)-1-(5-methyl-6-((1R,5S)-2-oxo-3-azabicyclo[3.1.0]hexan-3-yl)pyridazin-3-yl)ethyl)-1H-pyrazol-4-yl)pyrazine-2-carboxamide]: the IC50 was determined as 739 nM at human Factor XIa and 0.7 nM against Human plasma kallikrein.

Usually IC50 stands for the concentration at which inhibition is half-maximal.

Values taken from patent US20230286958A1, “PLASMA KALLIKREIN INHIBITORS” (Merck Sharp & Dohme LLC, priority 2020, published 2023).
